Earlier results as cited in patent US20240188563A1, “CATHETER LOCK SOLUTIONS INCORPORATING NITRIC OXIDE RELEASING LIPOSOMES” (Becton, Dickinson and Company, priority 2022, published 2024).

Test system: platelets
Settings: extracorporeal circuit

SMILES: CC(=O)N[C@H](C(=O)O)C(C)(C)SN=O [SNAP only, S-nitroso-N-acetyl penicillamine]
- Platelet count after 4 h (% of initial): vs. 50% (SNAP only)
